For the data set the following is noted: 101.33 kPa, Liquid.

Results on three compounds are retold here after the NIST ThermoML archive (doi:10.1021/je049576k).

SMILES strings stand for the structures. ± gives the expanded uncertainty stated by the source.

Turning to `CCCCCC` [hexane], the mass density is, setting by setting: (298.15 K) 655.07 ± 0.75 kg/m3; (313.15 K) 641.27 ± 0.77 kg/m3. In addition, the viscosity (298.15 K) was found to be 0.2951 ± 0.005 mPa·s and the viscosity (313.15 K) was 0.2552 ± 0.0045 mPa·s.
In the case of `C1COCO1` [1,3-dioxolane], the mass density came to 1058.62 ± 0.58 kg/m3 (298.15 K) and 1039.97 ± 0.56 kg/m3 (313.15 K). Besides, the viscosity turned out to be 0.5886 ± 0.0084 mPa·s (298.15 K) and 0.4985 ± 0.0074 mPa·s (313.15 K).
As for `CCC(C)O` (configuration not stated) [butan-2-ol], under “298.15 K”, the mass density is reported as 802.2 ± 0.6 kg/m3 and the viscosity is listed as 3.043 ± 0.037 mPa·s. Moreover, under “313.15 K”, the mass density came out at 789.59 ± 0.61 kg/m3 and the viscosity is reported as 1.791 ± 0.023 mPa·s.

By mass density is commonly meant the mass of a sample divided by its volume. One may read the viscosity as the resistance of a fluid to flow.
